Measurements from patent US20110039762A1, “TARGETED ANTIMICROBIAL MOIETIES” (C3 JIAN, INC., priority 2009, published 2011).
Entries after “also recorded” stand apart in the source; their conditions may differ. Square brackets hold non-standard residues; d marks the D form. Ends that are not written are not given here. dOrn = NCCC[C@@H](N)C(=O)O

These substances were tested on microorganisms (e.g., bacteria, yeasts, fungi) (assay: Targeting peptide binding to target microorganisms (Table 3)). Conditions: data not shown.

Substance	bacterial binding
DAANEA [BL-1]	no bacterial binding

Same assay, conditions: microorganism the targeting peptide binds; binding in aqueous buffers varied by peptide solubility, preferably 1x PBS

Substance	Target(s)
1T-261 (SFEKNKIENNLKIAQAYIYIKPKPRICQA; Peptide with targeting and/or antimicrobial activity) [Peptide 1T-261]	F. nucleatum; also recorded: S. mutans; also recorded: S. oralis; also recorded: S. sanguinis
1T-264 (LEGKFYMAEDFDKTPECFKDYV; Peptide with targeting and/or antimicrobial activity) [Peptide 1T-264]	S. sanguinis
1T-266 (RAGTWLVVDEIR; Peptide with targeting and/or antimicrobial activity) [Peptide 1T-266]	S. sanguinis
1T-267 (RIKEERKNRSYKFFIWRLFDEKTGFI; Peptide with targeting and/or antimicrobial activity) [Peptide 1T-267]	A. naeslundii; also recorded: F. nucleatum; also recorded: P. gingivalis; also recorded: T. denticola; also recorded: S. mitis; also recorded: S. mutans; also recorded: S. oralis; also recorded: S. sanguinis
1T-268 (PITPKKEKCGLGTYAPKNPVFSKSRV; Peptide with targeting and/or antimicrobial activity) [Peptide 1T-268]	F. nucleatum; also recorded: S. mutans; also recorded: S. oralis; also recorded: S. sanguinis
1T-269 (PLYVAAVEKINTAKKH; Peptide with targeting and/or antimicrobial activity) [Peptide 1T-269]	F. nucleatum; also recorded: S. mutans; also recorded: S. oralis; also recorded: S. sanguinis
1T-270 (VHEFDIQKILQNR; Peptide with targeting and/or antimicrobial activity) [Peptide 1T-270]	F. nucleatum; also recorded: S. mutans; also recorded: S. oralis; also recorded: S. sanguinis
1T-272 (QLAPIDKQLKAVKKIAFYESESTAAKAVTVA; Peptide with targeting and/or antimicrobial activity) [Peptide 1T-272]	F. nucleatum; also recorded: S. mutans; also recorded: S. oralis; also recorded: S. sanguinis
1T-273 (YNEPNYKWLESYKIYKQRCEDRTGMYYTEET; Peptide with targeting and/or antimicrobial activity) [Peptide 1T-273]	F. nucleatum; also recorded: P. gingivalis; also recorded: T. denticola; also recorded: S. mitis; also recorded: S. mutans; also recorded: S. oralis
1T-274 (ETTTEINAIKLHRIKQRSPQGTRRVN; Peptide with targeting and/or antimicrobial activity) [Peptide 1T-274]	F. nucleatum; also recorded: S. mutans; also recorded: S. oralis; also recorded: S. sanguinis
1T-282 (ISLVFPAYT; Peptide with targeting and/or antimicrobial activity) [Peptide 1T-282]	F. nucleatum; also recorded: P. gingivalis; also recorded: S. gordonii; also recorded: S. mitis; also recorded: S. mutans; also recorded: S. oralis; also recorded: S. salivarious; also recorded: S. sanguinis
1T-286 (LGFFNNKADLVKADTERDNRMSSLKIKDL; Peptide with targeting and/or antimicrobial activity) [Peptide 1T-286]	S. sanguinis
1T-287 (KGYPLPFQYRLNNH; Peptide with targeting and/or antimicrobial activity) [Peptide 1T-287]	P. gingivalis; also recorded: T. denticola; also recorded: S. gordonii; also recorded: S. mitis; also recorded: S. mutans; also recorded: S. oralis; also recorded: S. salivarious; also recorded: S. sanguinis
1T-288 (RWVGGEPSADIYLSAKDTKT; Peptide with targeting and/or antimicrobial activity) [Peptide 1T-288]	F. nucleatum; also recorded: S. gordonii; also recorded: S. salivarious; also recorded: S. sanguinis
1T-289 (EPSADIYLSAKDTKT; Peptide with targeting and/or antimicrobial activity) [Peptide 1T-289]	F. nucleatum; also recorded: P. gingivalis; also recorded: S. gordonii; also recorded: S. mitis; also recorded: S. mutans; also recorded: S. oralis; also recorded: S. sanguinis
1T-291 (DMKIIKLYIKILSFLFIKYCNKKLNSVKLKA; Peptide with targeting and/or antimicrobial activity) [Peptide 1T-291]	A. naeslundii; also recorded: F. nucleatum; also recorded: P. gingivalis; also recorded: T. denticola; also recorded: S. mitis; also recorded: S. mutans; also recorded: S. oralis
1T-294 (YDKIADGVFKIGKRGVL; Peptide with targeting and/or antimicrobial activity) [Peptide 1T-294]	T. denticola

Substance	Target(s)
1T-295 (KYKLKKIIL; Peptide with targeting and/or antimicrobial activity) [Peptide 1T-295]	S. mitis; also recorded: S. salivarious; also recorded: S. sanguinis
1T-297 (RSLRLNNALTKLPKLWYNRIKEAFYAYNDYDK; Peptide with targeting and/or antimicrobial activity) [Peptide 1T-297]	A. naeslundii; also recorded: F. nucleatum; also recorded: T. denticola; also recorded: S. mitis; also recorded: S. mutans; also recorded: S. oralis
1T-301 (SKLPRVLDASLKL; Peptide with targeting and/or antimicrobial activity) [Peptide 1T-301]	F. nucleatum; also recorded: S. gordonii; also recorded: S. sanguinis
1T-304 (STAGEASRRTASEASRRTAAKLRG; Peptide with targeting and/or antimicrobial activity) [Peptide 1T-304]	P. gingivalis
CHA0 (D[dOrn]KTAA[dOrn]K; not fully specified (bridges))	P. fluorescens
PF-014 (HPTDNKHN; Peptide with targeting and/or antimicrobial activity)	E. coli; also recorded: C. jeikeium
PF-016 (RKQYDDLSFNFLY; Peptide with targeting and/or antimicrobial activity)	S. epidermidis; also recorded: E. faecalis; also recorded: C. jeikeium
PF-018 (YYKTYFKEV; Peptide with targeting and/or antimicrobial activity)	E. coli; also recorded: C. jeikeium
PF-038 (MAYKDEGKETKFAVKGYKD; Peptide with targeting and/or antimicrobial activity)	M. luteus
PF-039 (MLEEKNKSL; Peptide with targeting and/or antimicrobial activity)	P. mirabilis; also recorded: C. jeikeium
PF-044 (KLKKYIHKPD; Peptide with targeting and/or antimicrobial activity)	S. epidermidis and M. luteus and MRSA and C. jeikeium
PF-047 (NQEPSLQQDKEQKDNKG; Peptide with targeting and/or antimicrobial activity)	S. mutans
PF-050 (SYYLKRREEKGK; Peptide with targeting and/or antimicrobial activity)	S. epidermidis; also recorded: M. luteus; also recorded: E. coli; also recorded: C. jeikeium
PF-054 (VSISRFIGGGHVFNGNNKRNL; Peptide with targeting and/or antimicrobial activity)	S. epidermidis; also recorded: E. coli
PF-055 (GHVFNGNNKRNL; Peptide with targeting and/or antimicrobial activity)	S. mutans
PF-060 (HSSHL; Peptide with targeting and/or antimicrobial activity)	E. coli; also recorded: C. albicans; also recorded: C. jeikeium
PF-062 (MKKKRINNDILGRMIYSSSIDKRNLYNLKYYE; Peptide with targeting and/or antimicrobial activity)	S. epidermidis and M. luteus and E. coli and P. aeruginosa and MRSA and S. pneumoniae and E. faecalis and C. jeikeium

Same assay, conditions: microorganism(s) the targeting peptide binds; binding in aqueous buffers depending on peptide solubility, preferably 1x PBS

Substance	Target(s)
AIEGVIKKGACFKLLRHEMF [PF-167]	S. epidermidis and E. coli and C. albicans and MRSA and C. jeikeium and C. jejuni
HIKETR (Peptide with targeting and/or antimicrobial activity) [PF-222]	S. epidermidis
MKKLVAALAVIVILTGCVYDPVNYDKIHDQEFQDHLRQNG [PF-252]	S. mutans
MLTSRKKRLKKIVEEQNKKDESI [PF-336]	S. mutans; also recorded: E. coli
PF-097 (QPTQGEQGTRPRRPTPMRGLLI; Peptide with targeting and/or antimicrobial activity)	C. jeikeium
PF-101 (DPVPERQEQACACHRTAKPGK; Peptide with targeting and/or antimicrobial activity)	S. mutans
PF-104 (ERTAVNDLWI; Peptide with targeting and/or antimicrobial activity)	MRSA and C. jeikeium
PF-130 (LQRSDEESMPRRHEKYS; Peptide with targeting and/or antimicrobial activity)	E. faecalis; also recorded: C. jeikeium; also recorded: C. jejuni
PF-131 (RRAAARTKGNRR; Peptide with targeting and/or antimicrobial activity)	S. epidermidis and E. coli and MRSA and C. jeikeium
PF-132 (RPGDGAAEQGRSR; Peptide with targeting and/or antimicrobial activity)	S. epidermidis; also recorded: C. jeikeium
PF-134 (GKAMKRQDCSAL; Peptide with targeting and/or antimicrobial activity)	S. epidermidis; also recorded: C. jeikeium
PF-138 (AVHHSLLFR; Peptide with targeting and/or antimicrobial activity)	S. epidermidis and M. luteus and P. mirabilis and E. coli and C. albicans and MRSA and C. jeikeium and C. jejuni

Same assay, conditions: peptide binding in aqueous buffers varied by peptide solubility; preferably 1x PBS

Substance	Target(s) (microorganisms bound by the targeting peptide)
PEIIKIVSGLL [PF-758]	S. epidermidis and M. luteus and E. coli and MRSA and S. pneumoniae and E. faecalis and C. jeikeium
PF670 (TVIVAPMHSGV; Peptide with targeting and/or antimicrobial activity)	Mycobacteria spp
